Earlier results as cited in patent US8740762B2, “Specific inhibition of cPLA2 enhances the efficacy of radiotherapy” (Vanderbilt University, priority 2007, dated 2014).

Experiments:
pro-survival kinases = settings: 20 μM

## lysophosphatidylcholine [LPC]
pro-survival kinases
  activation of pro-survival kinases: activated the same pro-survival kinases
HUVEC; concentrations higher than 25 μM
  cell death: promote cell death
HUVEC; up to 25 μM
  proliferation of HUVEC: increase proliferation
